In patent publication US12258328B2, “6-membered heteroaryl-containing aminopyridine compounds as EGFR inhibitors” (YUHAN CORPORATION, priority 2021, dated 2025):
Read-outs that look alike come from different tables or passages of the source.

What was measured:
EGFR L858R/T790M/C797S = EGFR L858R/T790M/C797S (Homo sapiens, UniProt P00533, C797S/L858R/T790M); assay: Biochemical EGFR kinase assay (Lance Ultra TR-FRET), triple mutant L858R/T790M/C797S
Summary of the method: (§1)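 Enzyme reactions lasted 1 hour at room temperature with test compounds between 0.003 and 10 μM, followed by 10 mM EDTA quench.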

EGFR del19/T790M/C797S = EGFR del19/T790M/C797S (Homo sapiens, UniProt P00533, C797S/DEL746-750/T790M); assay: Biochemical EGFR kinase assay (Lance Ultra TR-FRET), triple mutant del19/T790M/C797S
Chain of EGFR del19/T790M/C797S (P00533 with tags, fused parts or gaps DEL746-750/T790M/C797S): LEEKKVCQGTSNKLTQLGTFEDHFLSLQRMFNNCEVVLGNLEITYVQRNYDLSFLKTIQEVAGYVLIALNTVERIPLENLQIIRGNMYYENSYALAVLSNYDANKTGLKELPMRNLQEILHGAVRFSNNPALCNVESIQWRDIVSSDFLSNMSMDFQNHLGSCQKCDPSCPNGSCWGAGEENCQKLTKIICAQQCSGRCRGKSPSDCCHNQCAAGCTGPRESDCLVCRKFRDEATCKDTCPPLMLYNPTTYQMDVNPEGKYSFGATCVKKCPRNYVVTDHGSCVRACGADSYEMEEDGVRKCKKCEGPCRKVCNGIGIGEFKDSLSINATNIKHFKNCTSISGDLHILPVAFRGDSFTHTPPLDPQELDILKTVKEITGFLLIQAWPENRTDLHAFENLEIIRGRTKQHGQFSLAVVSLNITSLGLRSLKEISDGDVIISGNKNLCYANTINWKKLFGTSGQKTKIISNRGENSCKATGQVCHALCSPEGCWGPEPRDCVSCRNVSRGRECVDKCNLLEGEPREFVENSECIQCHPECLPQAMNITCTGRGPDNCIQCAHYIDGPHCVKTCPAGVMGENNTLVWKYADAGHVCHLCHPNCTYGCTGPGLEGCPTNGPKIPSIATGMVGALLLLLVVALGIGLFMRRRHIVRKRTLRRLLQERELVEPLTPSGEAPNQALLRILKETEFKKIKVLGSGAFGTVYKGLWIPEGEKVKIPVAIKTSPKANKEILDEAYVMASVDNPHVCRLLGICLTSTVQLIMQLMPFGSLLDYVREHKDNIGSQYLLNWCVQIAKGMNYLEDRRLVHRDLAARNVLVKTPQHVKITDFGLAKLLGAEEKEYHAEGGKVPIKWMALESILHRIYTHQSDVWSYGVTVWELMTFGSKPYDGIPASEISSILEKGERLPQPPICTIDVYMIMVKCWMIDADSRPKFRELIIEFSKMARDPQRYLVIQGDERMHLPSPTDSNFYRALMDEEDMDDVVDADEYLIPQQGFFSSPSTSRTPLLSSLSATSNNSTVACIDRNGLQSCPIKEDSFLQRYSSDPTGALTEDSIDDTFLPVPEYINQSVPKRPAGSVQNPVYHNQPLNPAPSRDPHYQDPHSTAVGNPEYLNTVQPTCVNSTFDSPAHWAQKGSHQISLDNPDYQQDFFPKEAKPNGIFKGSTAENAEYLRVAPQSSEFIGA
Summary of the method: as §1

EGFR del19/C797S = EGFR del19/C797S (Homo sapiens, UniProt P00533, C797S/DEL746-750); assay: Biochemical EGFR kinase assay (Lance Ultra TR-FRET), double mutant del19/C797S
Summary of the method: as §1

EGFR wildtype = EGFR wildtype (Homo sapiens, UniProt P00533); assay: Biochemical EGFR kinase assay (Lance Ultra TR-FRET), wildtype
Chain of EGFR wildtype (P00533 25-1210): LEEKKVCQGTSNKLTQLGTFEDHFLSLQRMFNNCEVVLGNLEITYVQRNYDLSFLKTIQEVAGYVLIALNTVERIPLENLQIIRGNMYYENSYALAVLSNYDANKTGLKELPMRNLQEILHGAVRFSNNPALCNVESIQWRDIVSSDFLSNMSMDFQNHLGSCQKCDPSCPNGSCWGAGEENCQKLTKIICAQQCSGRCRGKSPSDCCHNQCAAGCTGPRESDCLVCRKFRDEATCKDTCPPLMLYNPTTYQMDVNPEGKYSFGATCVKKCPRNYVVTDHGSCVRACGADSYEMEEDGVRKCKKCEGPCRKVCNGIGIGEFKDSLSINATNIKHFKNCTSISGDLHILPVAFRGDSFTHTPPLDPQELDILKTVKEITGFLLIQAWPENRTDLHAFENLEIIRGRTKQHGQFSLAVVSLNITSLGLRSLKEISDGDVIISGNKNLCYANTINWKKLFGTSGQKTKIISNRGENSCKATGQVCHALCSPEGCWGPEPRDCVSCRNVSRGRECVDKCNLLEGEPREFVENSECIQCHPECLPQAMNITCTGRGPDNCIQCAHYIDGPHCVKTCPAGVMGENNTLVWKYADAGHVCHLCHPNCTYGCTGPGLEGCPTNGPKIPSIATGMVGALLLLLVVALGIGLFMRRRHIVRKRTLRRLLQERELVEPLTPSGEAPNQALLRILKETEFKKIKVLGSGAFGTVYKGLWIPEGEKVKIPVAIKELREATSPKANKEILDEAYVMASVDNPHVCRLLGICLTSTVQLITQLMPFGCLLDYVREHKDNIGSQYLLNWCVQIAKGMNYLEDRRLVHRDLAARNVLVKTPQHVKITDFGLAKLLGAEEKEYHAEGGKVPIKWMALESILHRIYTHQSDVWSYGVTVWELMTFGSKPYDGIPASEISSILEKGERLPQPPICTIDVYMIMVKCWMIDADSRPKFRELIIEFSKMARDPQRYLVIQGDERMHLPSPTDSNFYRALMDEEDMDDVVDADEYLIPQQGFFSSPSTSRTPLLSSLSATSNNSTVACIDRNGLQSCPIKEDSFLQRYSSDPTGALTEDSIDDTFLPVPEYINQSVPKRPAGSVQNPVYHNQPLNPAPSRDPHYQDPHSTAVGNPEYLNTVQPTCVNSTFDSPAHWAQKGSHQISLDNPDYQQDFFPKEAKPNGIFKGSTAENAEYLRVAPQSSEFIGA
Summary of the method: as §1

EGFR L858R/C797S = EGFR L858R/C797S (Homo sapiens, UniProt P00533, C797S/L858R); assay: Biochemical EGFR kinase assay (Lance Ultra TR-FRET), double mutant L858R/C797S
Chain of EGFR L858R/C797S (P00533 25-1210 C797S/L858R): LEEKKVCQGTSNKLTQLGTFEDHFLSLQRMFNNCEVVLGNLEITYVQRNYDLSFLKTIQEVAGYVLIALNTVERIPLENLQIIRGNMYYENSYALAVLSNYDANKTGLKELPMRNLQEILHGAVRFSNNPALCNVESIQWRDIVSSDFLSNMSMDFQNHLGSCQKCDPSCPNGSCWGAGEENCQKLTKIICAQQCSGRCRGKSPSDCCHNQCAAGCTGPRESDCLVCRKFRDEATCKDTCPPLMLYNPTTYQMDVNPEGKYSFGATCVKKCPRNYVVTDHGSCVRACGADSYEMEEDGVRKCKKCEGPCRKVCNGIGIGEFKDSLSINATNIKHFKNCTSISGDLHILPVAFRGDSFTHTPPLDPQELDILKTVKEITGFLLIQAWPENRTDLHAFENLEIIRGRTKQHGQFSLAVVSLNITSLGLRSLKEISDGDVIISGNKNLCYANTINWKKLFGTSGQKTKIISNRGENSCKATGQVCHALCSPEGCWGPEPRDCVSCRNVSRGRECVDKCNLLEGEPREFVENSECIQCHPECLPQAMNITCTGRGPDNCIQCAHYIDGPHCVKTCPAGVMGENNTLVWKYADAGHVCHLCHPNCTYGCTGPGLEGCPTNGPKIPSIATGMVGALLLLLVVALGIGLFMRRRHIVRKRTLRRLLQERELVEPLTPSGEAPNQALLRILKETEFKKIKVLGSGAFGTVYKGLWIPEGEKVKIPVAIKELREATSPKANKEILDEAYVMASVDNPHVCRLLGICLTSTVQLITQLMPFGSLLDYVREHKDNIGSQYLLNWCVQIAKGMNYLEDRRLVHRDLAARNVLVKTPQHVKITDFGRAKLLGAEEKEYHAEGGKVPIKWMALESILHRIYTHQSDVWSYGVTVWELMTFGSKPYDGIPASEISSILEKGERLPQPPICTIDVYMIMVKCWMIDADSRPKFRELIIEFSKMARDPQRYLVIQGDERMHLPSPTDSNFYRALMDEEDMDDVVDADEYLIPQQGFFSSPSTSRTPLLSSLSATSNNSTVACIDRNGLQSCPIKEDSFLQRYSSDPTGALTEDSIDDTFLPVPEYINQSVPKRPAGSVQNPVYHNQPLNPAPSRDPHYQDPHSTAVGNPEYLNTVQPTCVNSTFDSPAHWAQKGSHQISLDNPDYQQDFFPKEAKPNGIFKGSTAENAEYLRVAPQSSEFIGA
Summary of the method: as §1

[1] = IC50 L858R/T790M/C797S (nM) 100 μM ATP, 100 μM ATP
[2] = Km ATP, read-out: IC50 L858R/T790M/C797S (nM) Km ATP
[3] = IC50 del19/T790M/C797S (nM) 100 μM ATP, 100 μM ATP
[4] = Km ATP, read-out: IC50 del19/T790M/C797S (nM) Km ATP
[5] = IC50 del19/C797S (nM) 100 μM ATP, 100 μM ATP
[6] = Km ATP, read-out: IC50 del19/C797S (nM) Km ATP
[7] = IC50 WT (nM) 100 μM ATP, 100 μM ATP
[8] = Km ATP, read-out: IC50 WT (nM) Km ATP
[9] = IC50 L858R/C797S (nM) 100 μM ATP, 100 μM ATP
[10] = Km ATP, read-out: IC50 L858R/C797S (nM) Km ATP

Chain of EGFR L858R/T790M/C797S (P00533 25-1210 T790M/C797S/L858R): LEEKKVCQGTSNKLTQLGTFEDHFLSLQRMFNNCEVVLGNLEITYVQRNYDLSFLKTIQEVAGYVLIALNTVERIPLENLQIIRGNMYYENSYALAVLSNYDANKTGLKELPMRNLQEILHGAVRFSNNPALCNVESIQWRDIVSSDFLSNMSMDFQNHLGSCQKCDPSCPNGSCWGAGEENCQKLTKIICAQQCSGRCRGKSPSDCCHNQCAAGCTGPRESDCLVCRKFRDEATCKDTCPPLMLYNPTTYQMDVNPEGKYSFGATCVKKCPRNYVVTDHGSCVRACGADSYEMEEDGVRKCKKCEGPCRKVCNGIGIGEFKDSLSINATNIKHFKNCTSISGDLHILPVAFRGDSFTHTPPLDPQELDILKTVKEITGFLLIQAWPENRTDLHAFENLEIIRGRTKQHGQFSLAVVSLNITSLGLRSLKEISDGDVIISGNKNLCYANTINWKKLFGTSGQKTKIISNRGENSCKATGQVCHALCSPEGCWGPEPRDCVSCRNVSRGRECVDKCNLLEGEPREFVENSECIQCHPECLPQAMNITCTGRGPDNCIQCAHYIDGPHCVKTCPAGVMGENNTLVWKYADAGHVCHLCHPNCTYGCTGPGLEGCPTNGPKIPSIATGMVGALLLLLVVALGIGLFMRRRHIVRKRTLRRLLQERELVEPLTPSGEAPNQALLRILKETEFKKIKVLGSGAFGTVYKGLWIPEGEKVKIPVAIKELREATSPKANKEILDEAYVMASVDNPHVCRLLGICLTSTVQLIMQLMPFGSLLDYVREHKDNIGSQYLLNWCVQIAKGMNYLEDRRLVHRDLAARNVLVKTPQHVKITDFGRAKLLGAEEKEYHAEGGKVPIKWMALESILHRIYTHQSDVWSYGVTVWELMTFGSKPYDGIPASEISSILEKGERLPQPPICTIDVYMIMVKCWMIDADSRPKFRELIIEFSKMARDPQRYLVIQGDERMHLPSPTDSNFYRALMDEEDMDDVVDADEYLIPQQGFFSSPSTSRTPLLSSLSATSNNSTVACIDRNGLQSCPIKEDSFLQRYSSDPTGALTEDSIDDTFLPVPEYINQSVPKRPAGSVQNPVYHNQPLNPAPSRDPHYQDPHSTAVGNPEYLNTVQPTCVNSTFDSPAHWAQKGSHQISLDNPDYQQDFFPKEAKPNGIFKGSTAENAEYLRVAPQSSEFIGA

SMILES: O=S(=O)(C1CC1)n1cc(-c2nccc(Nc3cc(N[C@H]4CC[C@H](CCO)CC4)c(-c4ccc(C(F)F)cn4)cn3)n2)cn1 [Example 95, 2-((1r,4r)-4-((6′-((2-(1-(Cyclopropylsulfonyl)-1H-pyrazol-4-yl)pyrimidin-4-yl)amino)-5-(difluoromethyl)-[2,3′-bipyridin]-4′-yl)amino)cyclohexyl)ethan-1-ol]
- IC50 (EGFR L858R/T790M/C797S; [1]): 2 nM
- IC50 (EGFR L858R/T790M/C797S; [2]): 0.9 nM
- IC50 (EGFR del19/T790M/C797S; [3]): 5.6 nM
- IC50 (EGFR del19/T790M/C797S; [4]): 2.5 nM
- IC50 (EGFR del19/C797S; [5]): 1540 nM
- IC50 (EGFR del19/C797S; [6]): 66.9 nM
- IC50 (EGFR wildtype; [7]): > 10000 nM
- IC50 (EGFR wildtype; [8]): 222 nM
- IC50 (EGFR L858R/C797S; [9]): 9160 nM
- IC50 (EGFR L858R/C797S; [10]): 8480 nM

SMILES: O=S(=O)(C1CC1)n1cc(-c2nccc(Nc3cc(N[C@H]4CC[C@H](CCO)CC4)c(-c4cc(C(F)F)ccn4)cn3)n2)cn1 [Example 96, 2-((1r,4r)-4-((6′-((2-(1-(Cyclopropylsulfonyl)-1H-pyrazol-4-yl)pyrimidin-4-yl)amino)-4-(difluoromethyl)-[2,3′-bipyridin]-4′-yl)amino)cyclohexyl)ethan-1-ol]
- IC50 (EGFR L858R/T790M/C797S; [1]): 0.8 nM
- IC50 (EGFR L858R/T790M/C797S; [2]): 0.7 nM
- IC50 (EGFR del19/T790M/C797S; [3]): 2 nM
- IC50 (EGFR del19/C797S; [5]): 224 nM
- IC50 (EGFR del19/C797S; [6]): 68 nM
- IC50 (EGFR wildtype; [7]): > 10000 nM
- IC50 (EGFR wildtype; [8]): 84.7 nM
- IC50 (EGFR L858R/C797S; [9]): 2220 nM
- IC50 (EGFR L858R/C797S; [10]): 27.4 nM

SMILES: O=S(=O)(C1CC1)n1cc(-c2nccc(Nc3cc(N[C@H]4CC[C@@H](CCO)CC4)c(-c4cc(C(F)F)ccn4)cn3)n2)cn1 [Example 97, 2-((1s,4s)-4-((6′-((2-(1-(Cyclopropylsulfonyl)-1H-pyrazol-4-yl)pyrimidin-4-yl)amino)-4-(difluoromethyl)-[2,3′-bipyridin]-4′-yl)amino)cyclohexyl)ethan-1-ol]
- IC50 (EGFR L858R/T790M/C797S; [1]): 1 nM
- IC50 (EGFR L858R/T790M/C797S; [2]): 0.5 nM
- IC50 (EGFR del19/T790M/C797S; [3]): 2.2 nM
- IC50 (EGFR del19/T790M/C797S; [4]): 2.1 nM
- IC50 (EGFR del19/C797S; [5]): 6 nM
- IC50 (EGFR del19/C797S; [6]): 2.3 nM
- IC50 (EGFR wildtype; [7]): > 10000 nM
- IC50 (EGFR wildtype; [8]): 7.4 nM
- IC50 (EGFR L858R/C797S; [9]): 52.6 nM
- IC50 (EGFR L858R/C797S; [10]): 2 nM

SMILES: CC(C)(O)[C@H]1CC[C@@H](Nc2cc(Nc3ccnc(-c4cnn(S(=O)(=O)C5CC5)c4)n3)ncc2-c2ccc(CN3CCC(O)CC3)cn2)CC1 [Example 98, 1-((6′-((2-(1-(Cyclopropylsulfonyl)-1H-pyrazol-4-yl)pyrimidin-4-yl)amino)-4′-(((1s,4s)-4-(2-hydroxypropan-2-yl)cyclohexyl)amino)-[2,3′-bipyridin]-5-yl)methyl) piperidin-4-ol]
- IC50 (EGFR L858R/T790M/C797S; [1]): 0.2 nM
- IC50 (EGFR L858R/T790M/C797S; [2]): 0.1 nM
- IC50 (EGFR del19/T790M/C797S; [3]): 0.5 nM
- IC50 (EGFR del19/T790M/C797S; [4]): 0.4 nM
- IC50 (EGFR del19/C797S; [5]): 0.3 nM
- IC50 (EGFR wildtype; [7]): 152 nM
- IC50 (EGFR L858R/C797S; [9]): 1.9 nM

SMILES: O=S(=O)(C1CC1)n1cc(-c2nccc(Nc3cc(N[C@H]4CC[C@@H](CO)CC4)c(-c4ccc(CN5CCC(O)CC5)cn4)cn3)n2)cn1 [Example 99, 1-((6′-((2-(1-(Cyclopropylsulfonyl)-1H-pyrazol-4-yl)pyrimidin-4-yl)amino)-4′-(((1s,4s)-4-(hydroxymethyl)cyclohexyl)amino)-[2,3′-bipyridin]-5-yl)methyl) piperidin-4-ol]
- IC50 (EGFR L858R/T790M/C797S; [1]): 0.1 nM
- IC50 (EGFR L858R/T790M/C797S; [2]): 0.04 nM
- IC50 (EGFR del19/T790M/C797S; [3]): 0.1 nM
- IC50 (EGFR del19/T790M/C797S; [4]): 0.1 nM
- IC50 (EGFR del19/C797S; [5]): 0.3 nM
- IC50 (EGFR del19/C797S; [6]): 0.3 nM
- IC50 (EGFR wildtype; [7]): 61.5 nM
- IC50 (EGFR wildtype; [8]): 0.3 nM
- IC50 (EGFR L858R/C797S; [9]): 0.7 nM
- IC50 (EGFR L858R/C797S; [10]): 0.1 nM

SMILES: O=S(=O)(C1CC1)n1cc(-c2nccc(Nc3cc(N[C@H]4CC[C@@H](CO)CC4)c(-c4cc(N5CCC(F)(F)CC5)ccn4)cn3)n2)cn1 [Example 100, ((1s,4s)-4-((6′-((2-(1-(Cyclopropylsulfonyl)-1H-pyrazol-4-yl)pyrimidin-4-yl)amino)-4-(4,4-difluoropiperidin-1-yl)-[2,3′-bipyridin]-4′-yl)amino)cyclohexyl)methanol]
- IC50 (EGFR L858R/T790M/C797S; [1]): 5.3 nM
- IC50 (EGFR L858R/T790M/C797S; [2]): 1.3 nM
- IC50 (EGFR del19/T790M/C797S; [3]): 8.1 nM
- IC50 (EGFR del19/T790M/C797S; [4]): 6.4 nM
- IC50 (EGFR del19/C797S; [5]): 10.8 nM
- IC50 (EGFR del19/C797S; [6]): 6.5 nM
- IC50 (EGFR wildtype; [7]): 7220 nM
- IC50 (EGFR wildtype; [8]): 12.7 nM
- IC50 (EGFR L858R/C797S; [9]): 24.9 nM
- IC50 (EGFR L858R/C797S; [10]): 12.9 nM
